According to ChEMBL document CHEMBL2440092, “Investigation of aryl halides as ketone bioisosteres: refinement of potent and selective inhibitors of human cytochrome P450 19A1 (aromatase)” (Bioorg Med Chem Lett, 2013):

Biological target: T1, Aromatase (Homo sapiens, UniProt P11511)
T1 sequence (P11511 whole entry): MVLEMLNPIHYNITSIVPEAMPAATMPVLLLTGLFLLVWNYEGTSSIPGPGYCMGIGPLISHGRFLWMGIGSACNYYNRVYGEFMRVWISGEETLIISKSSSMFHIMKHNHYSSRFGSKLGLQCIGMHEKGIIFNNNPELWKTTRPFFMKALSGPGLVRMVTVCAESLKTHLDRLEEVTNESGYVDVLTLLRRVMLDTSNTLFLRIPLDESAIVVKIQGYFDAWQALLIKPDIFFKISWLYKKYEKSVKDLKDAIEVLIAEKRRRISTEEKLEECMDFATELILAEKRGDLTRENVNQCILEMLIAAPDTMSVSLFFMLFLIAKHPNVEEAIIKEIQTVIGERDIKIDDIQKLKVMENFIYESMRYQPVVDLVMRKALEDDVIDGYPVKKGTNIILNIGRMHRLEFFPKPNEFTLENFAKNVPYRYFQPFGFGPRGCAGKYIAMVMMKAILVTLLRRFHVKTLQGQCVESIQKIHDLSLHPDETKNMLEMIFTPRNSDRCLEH
Description: Inhibition of recombinant human aromatase using O-dibenzylfluorescein benzyl ester as substrate by fluorometric assay

Compound | Ki [µM]
O[C@@H](c1ccccc1)[C@H](Cn1ccnn1)c1ccc(Br)cc1 | 0.841
COCO[C@@H](c1ccc(F)cc1)[C@H](Cn1ccnn1)c1ccccc1 | 0.16
CC(=O)O[C@@H](c1ccc(F)cc1)[C@@H](Cn1ccnn1)c1ccccc1 | 0.11
COCO[C@@H](c1ccc(Br)cc1)[C@H](Cn1ccnn1)c1ccccc1 | 0.07
COCO[C@@H](c1ccccc1)[C@@H](Cn1ccnn1)c1ccc(Br)cc1 | 0.111
COCO[C@@H](c1ccccc1)[C@H](Cn1ccnn1)c1ccc(Br)cc1 | 0.02
O[C@@H](c1ccccc1)[C@@H](Cn1ccnn1)c1ccc(Br)cc1 | 0.82
CC(=O)O[C@@H](c1ccccc1)[C@H](Cn1ccnn1)c1ccc(Br)cc1 | 0.647
COCO[C@@H](c1ccc(F)cc1)[C@@H](Cn1ccnn1)c1ccccc1 | 0.08
CC(=O)O[C@@H](c1ccc(Br)cc1)[C@@H](Cn1ccnn1)c1ccccc1 | 0.09
CC(=O)O[C@@H](c1ccccc1)[C@@H](Cn1ccnn1)c1ccc(Br)cc1 | 0.237
CC(=O)O[C@@H](c1ccc(F)cc1)[C@H](Cn1ccnn1)c1ccccc1 | 0.35
COCO[C@@H](c1ccc(Br)cc1)[C@@H](Cn1ccnn1)c1ccccc1 | 0.02
O[C@@H](c1ccc(F)cc1)[C@@H](Cn1ccnn1)c1ccccc1 | 0.33
O[C@@H](c1ccc(F)cc1)[C@H](Cn1ccnn1)c1ccccc1 | 0.2
